We go through one compound from patent US20140162942A1, “INHIBITION OF CYP3A DRUG METABOLISM” (priority 2010, published 2014).

In series [1] the target is T1, CYP2C9 (Homo sapiens, UniProt P11712).
T1 construct: Pooled human liver microsomes (from sixteen individuals) were used as the source of enzymes; tissue XenoTech, LLC; host or cells: human liver microsomes, pool of sixteen donors
The experiment in a line: CYP2C9 inhibition, diclofenac 4′-hydroxylation in human liver microsomes. The series is classed as in vitro ADME. Conditions: for Potential for Time-Dep. Inhibition: comparison with and without 30-minute pre-incubation. The procedure: (§1) The basis for many of the following incubation conditions is described in the following references: Madan, et al., 2002,^(1) Huang, 2004,^(3) Ogilvie, et al., 2006,^(6) Pearce, et al., 1996,^(7) Tucker, et al., 2001,^(4) and Walsky and Obach, 2004.^(5) In general, incubations were conducted at approximately 37° C. in 400-μL incubation mixtures (target pH 7.4) containing high purity water, potassium phosphate buffer (50 mM), MgCl2 (3 mM), EDTA (1 mM), an NADPH-generating system [always the mixture of the following: NADP (1 mM), glucose-6-phosphate (5 mM), glucose-6-phosphate dehydrogenase (1 Unit/mL)], and marker substrate at the final concentrations indicated. Pooled human liver microsomes (from sixteen individuals) were used as the source of enzymes (Section 1.3.1.2). The concentrations of marker substrates were based on the Km and Vmax data that were determined previously (data not shown).
(§2) Due to the possibility that boceprevir may bind to microsomal protein or lipids, an attempt was made to design these experiments such that, in as many cases as possible, the microsomal protein, incubation time, and phosphate buffer concentration were 0.1 mg/mL, 5 minutes and 50 mM, respectively, for assays performed with human liver microsomes (Table 1). […] Since it is not imperative that the concentration of marker substrates be exactly equal to Km, the marker substrate concentrations were rounded up or down, as applicable, to simplify the experimental design (data not shown). […] Thus, the final incubation concentration of phenacetin was 60 μM (Table 1).
(§3) The ability of boceprevir to inhibit the CYP enzymes listed in Section 1.2.1 was investigated with a pool of sixteen individual human liver microsomal samples at the concentrations indicated in Table 1. Aliquots of the stock and/or working solutions of boceprevir were manually added to buffer mixtures containing the components described in Section 1.3.21. Incubation mixtures were prepared in bulk to obviate the need for directly pipetting very small volumes (i.e., 1 μL or less). Incubations containing no boceprevir (0 μM) contained the vehicle used to dissolve boceprevir (i.e., 1% methanol).
(§4) The Tecan liquid handling system conducted all remaining incubation steps, with the exception of the centrifugation. Aliquots of the buffer mixtures were then automatically added to 96-well plates at the appropriate locations in duplicate. Aliquots of a substrate working solution were added to the 96-well plates, prior to initiating reactions, to give the final concentrations indicated in Table 1. Reactions were initiated with the addition of an aliquot of an NADPH-generating system. Reactions were automatically terminated at approximately 5 minutes, by the addition of the appropriate internal standard (Table 5) and stop reagent; acetonitrile. Precipitated protein was removed by centrifugation (920 g for 10 minutes at 10° C.). Standards and quality control samples were similarly prepared with the addition of authentic metabolite standards.
To examine its ability to act as a time-dependent inhibitor, boceprevir (at the same concentrations used to evaluate direct inhibition) was pre-incubated at 37±1° C., in duplicate, with human liver microsomes and an NADPH-generating system for approximately 30 minutes. This pre-incubation allowed for the generation of intermediates that could inhibit human CYP enzymes. The pre-incubations were initiated with the addition of an aliquot of an NADPH-generating system. […]

For series [2], the target named is T2, CYP2D6 (Homo sapiens, UniProt P10635).
T2 construct: Pooled human liver microsomes (from sixteen individuals) were used as the source of enzymes; tissue XenoTech, LLC; host or cells: human liver microsomes, pool of sixteen donors
The experiment in a line: CYP2D6 inhibition, dextromethorphan O-demethylation in human liver microsomes. The series is classed as in vitro ADME. Conditions: for Potential for Time-Dep. Inhibition: comparison with and without 30-minute pre-incubation; for inhibition at 5 min, 100 µM: human, pH 7.4, probe dextromethorphan (O-demethylation). The procedure:
as §1, §2, §3, §4
To examine its ability to act as a time-dependent inhibitor, boceprevir (at the same concentrations used to evaluate direct inhibition) was pre-incubated at 37±1° C., in duplicate, with human liver microsomes and an NADPH-generating system for approximately 30 minutes. This pre-incubation allowed for the generation of intermediates that could inhibit human CYP enzymes. The pre-incubations were initiated with the addition of an aliquot of an NADPH-generating system. […] Reactions were automatically terminated, at approximately 5 minutes, by the addition of the appropriate internal standard (Table 5) and stop reagent; acetonitrile. Precipitated protein was removed by centrifugation (920 g for 10 minutes at 10° C.). Incubations containing no boceprevir (0 μM) and incubations that contained boceprevir but were not pre-incubated, served as negative controls.

Series [3] deals with CYP3A4/5. The experiment in a line: Metabolite inhibitory complex (MIC) formation, human liver microsomes with high CYP3A4/5 activity. The series is classed as in vitro ADME. To be noted: 3 μM, scans 380-520 nm for 15 minutes. The procedure: In an attempt to determine the mechanism in which boceprevir inactivated CYP3A4/5, an experiment was conducted to determine if boceprevir formed a spectrophotometrically detectable metabolite inhibitory complex with cytochrome P450 (i.e., peaks at approximately 452 nm).
In this experiment (summarized in Table 4), an individual human liver microsomal sample containing high levels of CYP3A4/5 activity (final protein concentration of 1 mg/mL, 1.7 nmol P450/mg protein) was added to the sample and reference cuvettes in a buffer mixture consisting of potassium phosphate (50 mM), and MgCl2 (3 mM) for a final volume of 980 μL. Baseline scans from 380 to 520 nm were recorded on a Varian Cary 100 BIO UV/Vis dual beam spectrophotometer. Boceprevir was then added to the sample cuvette in 10 μL of methanol for a final incubation concentration of 3 μM. A corresponding volume of the solvent (10 μL of methanol), used to dissolve boceprevir, was added to the reference. The reactions were initiated with 10 μL of β-NADPH added to both cuvettes to give a final volume of 1 mL. Continuous scans were conducted every minute for 15 minutes after the addition of β-NADPH. All scans were conducted at approximately 37° C. […]

For series [4], the system named is CYP3A4/5. Put plainly: NADPH dependence and effects of dilution of time-dependent inhibition of CYP3A4/5 (testosterone 6β-hydroxylation and midazolam 1′-hydroxylation). It counts as in vitro ADME, human. To be noted: 3 μM.
[5] abbreviates: direct inhibition, zero-minute pre-incubation, pooled human liver microsomes.
Setting [6] is: time-dependent inhibition, 30-minute pre-incubation.

Read-outs that look alike come from different tables or passages of the source. A value given as a limit tells only on which side of the number the result lay.

T2 sequence (P10635 whole entry): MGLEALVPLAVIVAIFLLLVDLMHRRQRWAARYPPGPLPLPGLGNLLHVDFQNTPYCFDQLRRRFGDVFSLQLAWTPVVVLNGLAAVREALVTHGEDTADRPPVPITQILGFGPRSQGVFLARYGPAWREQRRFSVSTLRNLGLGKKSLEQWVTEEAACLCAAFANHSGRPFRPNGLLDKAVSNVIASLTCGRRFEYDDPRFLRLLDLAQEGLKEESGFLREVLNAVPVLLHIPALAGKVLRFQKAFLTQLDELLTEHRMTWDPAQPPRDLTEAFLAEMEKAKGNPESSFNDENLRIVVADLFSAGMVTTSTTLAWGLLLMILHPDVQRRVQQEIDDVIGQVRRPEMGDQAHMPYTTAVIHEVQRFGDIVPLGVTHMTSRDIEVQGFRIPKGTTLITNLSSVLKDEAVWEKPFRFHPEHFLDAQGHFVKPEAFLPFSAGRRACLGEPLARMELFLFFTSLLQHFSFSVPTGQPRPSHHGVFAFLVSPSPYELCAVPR
T1 sequence (P11712 whole entry): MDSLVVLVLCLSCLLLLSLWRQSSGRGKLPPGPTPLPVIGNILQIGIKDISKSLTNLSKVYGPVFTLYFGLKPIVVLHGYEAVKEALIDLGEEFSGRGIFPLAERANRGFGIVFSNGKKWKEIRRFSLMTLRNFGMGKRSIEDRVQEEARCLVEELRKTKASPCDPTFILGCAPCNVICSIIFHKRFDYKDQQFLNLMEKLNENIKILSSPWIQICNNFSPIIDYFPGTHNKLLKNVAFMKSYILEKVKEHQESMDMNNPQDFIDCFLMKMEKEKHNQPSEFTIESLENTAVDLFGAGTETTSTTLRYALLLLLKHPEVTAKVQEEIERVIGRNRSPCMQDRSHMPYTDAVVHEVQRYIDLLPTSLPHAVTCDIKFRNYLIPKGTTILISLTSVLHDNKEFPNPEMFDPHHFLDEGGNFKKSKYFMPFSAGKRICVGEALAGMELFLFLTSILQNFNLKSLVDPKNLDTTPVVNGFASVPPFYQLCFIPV

`CC(C)(C)NC(=O)NC(C(=O)N1CC2C([C@H]1C(=O)NC(CC1CCC1)C(=O)C(N)=O)C2(C)C)C(C)(C)C` (stereo partly drawn) [Boceprevir, (1R,2S,5S)—N-[(2Ξ)-4-amino-1-cyclobutyl-3,4-dioxobutan-2-yl]-3-{(2S)-2-[(tert-butylcarbamoyl)amino]-3,3-dimethylbutanoyl}-6,6-dimethyl-3-azabicyclo[3.1.0]hexane-2-carboxamide]: the “Potential for Time-Dep. Inhibition” value in series [1] is recorded as “little or no”; in series [1] (listed as boceprevir), “no discernable time-dependent inhibition”; in series [2], “little or no”; in series [2] (listed as boceprevir) it was “no discernable time-dependent inhibition”. For the same compound, the IC50 in series [1] (setting [5]), in series [1] (setting [6]), in series [2] (setting [5]) and in series [2] (setting [6]) was > 100 µM in each case. The inhibition at 5 min, 100 µM in series [1] (human, pooled human liver microsomes, pH 7.4, probe diclofenac (4′-hydroxylation), direct inhibition, zero-minute pre-incubation, read-out: Max. Inhib. at 100 μM) is 3.6%; in series [2] (pooled human liver microsomes, direct inhibition, zero-minute pre-incubation, read-out: Max. Inhib. at 100 μM), 45%; in series [2] (pooled human liver microsomes, time-dependent inhibition, 30-minute pre-incubation, read-out: Maximum Inhibition at 100 μM), 30%. Also, in series [3], the “Formation of a spectrally visible metabolite inhibitory complex (MIC)” value is “did not appear to form a spectrally visible MIC”. In addition, the “Resistance to dilution of the increase in inhibition upon pre-incubation” value in series [4] (25-fold dilution after pre-incubation) is listed as “did not appear to be resistant to dilution”. For the same compound, the “NADPH dependence of the increase in inhibition upon pre-incubation” value in series [4] (pre-incubation 0, 15 and 30 minutes with and without NADPH) was “did require NADPH”.
